# Read-outs that look alike come from different tables or passages of the source.
# What was measured:
# [1] = Organic dye dispersibility test; assay type: physicochemical; details: 0.2 g compound, 0.7 g water, 0.1 g Vali Fast Black 3830; ultrasonic dispersion; after 24 hours; visual
# [2] = target: T1, urease (Canavalia ensiformis, UniProt P07374); assay type: biochemical, sword bean; details: solid sample, 40° C., 80% RH, after 30 days
# [3] = target: T2, cytochrome C (Equus caballus, UniProt P00004); test: Protein long-term stability (IR and UV spectrum), solid sample; parameters: species or system Horse; details: cytochrome C, solid sample, 40° C., 80% RH, after 30 days
# T2 construct: a reagent produced by NACALAI TESQUE, INC; (Horse Heart, molecular weight 12384) was used; purchased NACALAI TESQUE, INC; host or cells: horse heart (tissue origin)
# T2 sequence (P00004 whole entry): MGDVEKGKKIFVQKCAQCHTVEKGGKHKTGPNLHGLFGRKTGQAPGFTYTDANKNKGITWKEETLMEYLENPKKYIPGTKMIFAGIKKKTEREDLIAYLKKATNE
# [4] = system: DNA; test: DNA long-term stability, 50% aqueous solution; details: 40° C., 80% RH
# [5] = 0.25 g compound, 0.50 g water, 0.10 g zinc oxide; visual
# [6] = target: T1, urease; assay type: biochemical, sword bean; details: urease in 50 wt % aqueous solution of compound; 40° C., 80% RH; after 30 days; Stabilizer:Enzyme = 1:1
# [7] = target: T1, urease; assay type: biochemical, sword bean; details: urease, 40° C., 80% RH, after 30 days, 1:1
# [8] = Carbon nanotube dispersibility test; assay type: physicochemical; details: 0.25 g compound, 0.75 g water, 0.025 g carbon nanotubes; visual
# [9] = target: T2, cytochrome C; test: Protein long-term stability, 50% aqueous solution; parameters: species or system Horse; details: cytochrome C in 50 wt % aqueous solution of compound; 40° C.; after 30 days; 1:1
# Description: At first, changes in amide absorption by IR spectrum were precisely observed, and there were confirmed the higher-order structures of protein (turn, α-helix, random coil, β-sheet). The amide I region (1,600 to 1,700 cm^−1) and the amide II region (1,500 to 1,600 cm^−1) were measured by ATR method using a Fourier transform infrared spectrophotometer (FT/IR-6100 by JASCO Corporation), and peaks were then detected based on a difference(s) between a cytochrome C-free organic ammonium salt sample (blank) and a cytochrome C-containing organic ammonium salt sample (sample).
# Further, the activity state of cytochrome C (Fe^2+: reduced form, Fe^3+: oxidized form) was confirmed via absorptions in UV spectrum. The measurement was conducted using an ultraviolet-visible spectrophotometer and a quartz cell having an optical path width of 2 mm, immediately after diluting the cytochrome C-containing organic ammonium salt sample to 1% with a 50 mM phosphate buffer of pH 7.4 (prepared using 50 mM potassium dihydrogen phosphate and 50 mM dipotassium hydrogen phosphate).
# [10] = 0.25 g compound, 0.50 g water, 0.10 g barium titanate; visual
# [11] = dispersion liquid dried at 50° C. under reduced pressure for three hours, 0.50 g water added, remixed; visual
# [12] = dispersion liquid dried at 50° C. under reduced pressure for three hours, 0.50 g water added, remixed; visual; remark: listed apart in the source
# [13] = Metal oxide dispersibility test (titanium oxide); assay type: physicochemical; details: 0.25 g compound, 0.50 g water, 0.10 g titanium oxide (IV); visual
# [14] = Vali Fast Black 3830 dispersion liquid dried at 50° C. under reduced pressure for three hours, 0.7 g water added, remixed; visual
# [15] = Metal oxide dispersibility test (zirconium oxide); assay type: physicochemical; details: 0.25 g compound, 0.50 g water, 0.10 g zirconium oxide (IV); visual
# T1 sequence (P07374 whole entry, looked up): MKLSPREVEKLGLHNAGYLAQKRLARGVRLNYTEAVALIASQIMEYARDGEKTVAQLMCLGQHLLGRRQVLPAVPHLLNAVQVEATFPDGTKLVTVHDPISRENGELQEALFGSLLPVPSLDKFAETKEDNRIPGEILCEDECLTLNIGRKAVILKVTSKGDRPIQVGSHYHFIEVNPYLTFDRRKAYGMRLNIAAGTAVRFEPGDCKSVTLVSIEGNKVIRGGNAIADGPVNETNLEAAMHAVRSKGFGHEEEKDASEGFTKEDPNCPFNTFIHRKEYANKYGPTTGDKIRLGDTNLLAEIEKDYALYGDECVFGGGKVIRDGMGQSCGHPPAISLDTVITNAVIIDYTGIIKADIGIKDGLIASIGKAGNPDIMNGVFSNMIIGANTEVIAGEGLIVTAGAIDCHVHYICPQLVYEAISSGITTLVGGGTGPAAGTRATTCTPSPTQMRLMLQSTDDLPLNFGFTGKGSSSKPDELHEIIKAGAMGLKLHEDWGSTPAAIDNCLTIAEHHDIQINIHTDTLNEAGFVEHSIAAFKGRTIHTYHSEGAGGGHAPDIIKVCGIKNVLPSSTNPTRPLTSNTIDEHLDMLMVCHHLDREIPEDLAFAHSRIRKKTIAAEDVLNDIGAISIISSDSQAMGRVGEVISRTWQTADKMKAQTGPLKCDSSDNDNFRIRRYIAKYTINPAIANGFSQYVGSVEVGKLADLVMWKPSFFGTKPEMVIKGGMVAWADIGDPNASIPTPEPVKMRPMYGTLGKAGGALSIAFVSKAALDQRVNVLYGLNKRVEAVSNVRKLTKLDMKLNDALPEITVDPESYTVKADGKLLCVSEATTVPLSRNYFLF
smiles,measurement,setting,value
NC(CO)(CO)CO [Working example 28],Dye dispersibility,[1],○ ○ ○ ○
same,Enzyme activity retention rate(%) (after 30 days) Stabilizer: Enzyme = 0.1:1,[2]; Stabilizer:Enzyme = 0.1:1,15%
same,Enzyme activity retention rate(%) (after 30 days) Stabilizer: Enzyme = 1:1,[2]; Stabilizer:Enzyme = 1:1,65%
same,Enzyme activity retention rate(%) (after 30 days) Stabilizer: Enzyme = 10:1,[2]; Stabilizer:Enzyme = 10:1,35%
same,Protein long-term stability (after 30 days) Stabilizer: Protein = 0.1:1,[3]; Stabilizer:Protein = 0.1:1,◯
same,Protein long-term stability (after 30 days) Stabilizer: Protein = 1:1,[3]; Stabilizer:Protein = 1:1,◯
same,Protein long-term stability (after 30 days) Stabilizer: Protein = 10:1,[3]; Stabilizer:Protein = 10:1,◯
same,DNA long-term stability (after 30 days) Stabilizer: DNA = 1:1,[4],○ ○
same,Zinc oxide dispersibility,[5],○ ○ ○ ○
same,Enzyme activity retention rate(%) (after 30 days) Stabilizer: Enzyme = 1:1,[6],15%
same,"Enzyme activity retention rate (%) (after 30 days) Stabilizer:Enzyme = 1:1, Mixed by mortar",[7]; solid sample mixed by mortar,12%
same,"Enzyme activity retention rate (%) (after 30 days) Stabilizer:Enzyme = 1:1, Solvent distilled away from dissolution solution","[7]; solid sample, solvent distilled away from dissolution solution",65%
same,Carbon nanotube dispersibility,[8],○ ○
same,Protein long-term stability (after 30 days) Stabilize:Protein = 1:1,[9],○ ○ ○
same,Barium titanate dispersibility,[10],○ ○ ○ ○
same,Redispersibility Titanium oxide,[11],○ ○ ○ ○
same,Redispersibility Zirconium oxide,[12],○ ○ ○ ○
same,Titanium oxide dispersibility,[13],○ ○ ○ ○
same,Redispersibility Dye,[14],○ ○ ○ ○
same,Zirconium oxide dispersibility,[15],○ ○ ○ ○
